Read-outs that look alike come from different tables or passages of the source.
Assays:
[1] = test system: amnesia induced by scopolamine; assay: multiple-trial passive avoidance: mnemic retention, amnesia induced by scopolamine
Protocol: To this end, the method of multiple-trial passive avoidance has been used. […] The test is carried out on male Sprague-Dawley rats (160-200 g). which are kept in standard cages throughout the experiment. The apparatus used is a transparent square cage with 35 cm sides and 25 cm high, fitted with a grid floor which can be electrified. A rubber insulating mat (10×17 cm) is placed on the floor in one of the corners of the cage.
Each animal is subjected to four tests at times 0, 4, 24 and 28 hours. In the first test (time 0), the animal is placed on the rubber mat and the time which it takes to decide to leave this position to explore the cage is recorded. After 20 seconds of exploration, the rat receives an electric shock (3 seconds duration) in the paws, causing an escape reaction. The rat is immediately removed from the apparatus and replaced in its original cage. In the course of the three subsequent tests (times: 4, 24 and 28 hours), the animal is replaced on the rubber mat and the time taken to leave this position is recorded. As soon as the four paws of the animal rest on the grid, it receives an electric shock and is removed immediately from the apparatus.
At the start of the experiment, the rats are divided into 4 homogeneous groups of 15 animals. Thirty minutes before each test, each group of animals is subjected to a predetermined treatment:
Groups 1 and 2 are used in the first experiment (learning) and groups 3 and 4 in the second experiment (mnemic retention).
The differences found are analyzed statistically by the Mann-Whitney method.

[2] = multiple-trial passive avoidance: learning; assay type: in vivo, male Sprague-Dawley rats
Protocol: To evaluate whether a compound can promote learning, the following test is carried out. […] Rats which remain on the mat for this period have acquired the avoidance reflex and are replaced in their original cage without receiving the electric shock. […] The results obtained in the test used to evaluate learning are given in columns 3 and 4. […] The results were analyzed by the Student test.

[3] = test system: anaphylactic release of histamine, guinea-pig lung sections; assay: inhibition of the anaphylactic release of histamine (proper effect); assay type: cell-based, Dunkin-Hartley guinea-pigs; settings: Cavia porcellus, in vitro, read-out: Minimum inhibitory dose (MID)
Protocol: (§1) Dunkin-Hartley guinea-pigs which are first passively sensitized by an intravenous injection of 1 ml of isologous antiovalbumin serum are used. Twenty-four hours after the injection, the lungs are then perfused with a Tyrode buffer to evacuate the blood, and then removed and cut into sections of 1 mm. These sections are divided up into test tubes (3 sections per tube) to give 10 experimental groups of lung sections per guinea-pig. A "positive" control group of lung sections is stimulated by addition of an ovalbumin solution (0.1 mg/ml) to induce the anaphylactic release of histamine and serves to determine the maximum amount of histamine (100%) which can be released. A "negative" control group which is not stimulated by ovalbumin serves to determine the naturally released amount of histamine (spontaneous release). In three other groups, the lung sections are incubated at 37° C. for 30 minutes in the ovalbumin solution in the presence of three different doses of the compound to be tested (one dose per group). […] At this dose, isoprenaline inhibits the release of histamine by 30 to 40%, which is verified on a control group treated only with isoprenaline alone at this dose. In addition, a supplementary control group which is not stimulated by ovalbumin is used to detect a possible spontaneous release of histamine by the highest dose of the compound tested. In each group, the histamine released in the incubation medium is measured by spectrofluorometry (D. P. EVANS et al., Life Sci., 12, (1973), 327-336).

[4] = test system: bronchospasm induced by acetylcholine; assay: bronchospasmolytic activity (Konzett and Roessler), bronchospasm induced by acetylcholine; assay type: in vivo, Dunkin-Hartley guinea-pig; settings: Cavia porcellus; intravenous; acetylcholine-induced bronchospasm; read-out: Doses (ID50), Acetylcholine
Protocol: (§2) This activity was measured in the Dunkin-Hartley guinea-pig by the method of H. KONZETT and […] (Naunyn Schmiedebergs Arch. exp. Path. […] The anesthetized (urethane) and curarized (gallamine) guinea-pig is placed under assisted respiration. The endotracheal pressure is recorded. […] The compound to be tested is also administered intravenously two minutes before the administration of the spasmogen and then in 3 to 4 cumulative doses in increasing amounts at intervals of 15 minutes. Six animals per compound to be tested and per spasmogen are used.

[5] = test system: bronchospasm induced by serotonin; assay: bronchospasmolytic activity (Konzett and Roessler), bronchospasm induced by serotonin; assay type: in vivo, Dunkin-Hartley guinea-pig; settings: Cavia porcellus; intravenous; serotonin-induced bronchospasm; read-out: Doses (ID50), Serotonin
Protocol: as §2

[6] = test system: anaphylactic release of histamine, guinea-pig lung sections; assay: potentiation of the inhibition of anaphylactic histamine release by isoprenaline; assay type: cell-based, Dunkin-Hartley guinea-pigs; settings: with isoprenaline 10^-7 mole per liter
Protocol: as §1

[7] = test system: PMN granulocytes; assay: inhibition of the stimulation of PMN granulocytes (chemiluminescence); assay type: cell-based, Rat; settings: Rattus norvegicus; 10^-6 mole/l; FMLP 3.2×10^-7 mole/liter; read-out: Residual chemiluminescence
Description: Polymorphonuclear neutrophil granulocytes (PMN) are cells which are mobilized during inflammatory phenomena and which can be stimulated by various compounds, such as, for example, formylmethionyl-leucylphenylalanine (FMLP) or prostaglandins E (PGE1). The PMN granulocytes respond to these extracellular stimuli with an activation of the oxygen metabolism with release of toxic oxygenated metabolites. An excessive response of the PMN granulocytes may be the cause of a painful inflammation and is also accompanied by a reduction in the level of cyclic adenosine monophosphate (cAMP) in these granulocytes. Consequently, compounds which inhibit the respiratory burst of PMN granulocytes or which increase the level of cAMP can be regarded as very important in the treatment of arthritis and asthma. […] Rat PMN granulocytes (5×10^6 /ml) are preincubated in a phosphate buffer ([…], pH 7.4), containing luminol at a concentration of 10^-5 mole per liter, for 15 minutes at 37° C. and then for 5 minutes in the presence of the compound to be treated at a concentration of 10^-6 mole/liter. […] The luminescence which results from the stimulation is measured by means of an LKB 1251 luminometer according to the method of […] and […] (Infection and Immunology, 37, (1982), 34-39). An experimental cycle lasts 38 seconds. The reaction is repeated 9 times for each compound to be tested and the average of the results obtained is calculated.

[8] = toxicity, Irwin's test; assay type: in vivo; settings: i.p.; death of two animals out of three within 48 hours
Protocol: Progressive doses of the compound to be tested are administered intraperitoneally to groups of three mice until the lethal dose is reached (dose which causes the death of two animals out of three within 48 hours).

[9] = test system: longitudinal muscles of the ileum contracted by histamine; assay: potentiation of the myorelaxing effect of isoprenaline on the ileum; assay type: cell-based, Dunkin-Hartley guinea-pigs; settings: with isoprenaline 10^-7 mole/l; histamine 3.2 μmoles/l
Protocol: (cf. R. A. TURNER, "Screening Methods in Pharmacology", Ed. Acad. Press, San Diego, 1965, chapter IV, pages 43-47). […] Inhibition cycle: When the successive contractions induced by the histamine injections have become reproducible, the compound to be tested is injected immediately after the second wash. The contraction induced by the following injection of histamine is measured and compared with the average of the three preceding contractions caused by the repeated injections of histamine (control contractions). From the result obtained, the percentage inhibition of the contraction is calculated. Several cycles of histamine injection are then performed again, until the contractions of the muscle become reproducible again; the muscle is then ready for testing of another compound. The potentiating effect of a compound is measured in the course of a so-called "potentiation" cycle, which comprises three successive inhibition cycles. […] In the course of the second inhibition cycle, the percentage inhibition of the contraction obtained with the compound to be tested, injected alone at a given dose, is determined. In the third inhibition cycle, isoprenaline and the compound to be tested are injected simultaneously, and the percentage inhibition of the contraction is calculated for the dose used of the compound tested. The same experiments are repeated for each of the doses of the compounds tested.

[10] = test system: bronchospasm induced by histamine; assay: bronchospasmolytic activity (Konzett and Roessler), bronchospasm induced by histamine; assay type: in vivo, Dunkin-Hartley guinea-pig; settings: Cavia porcellus; intravenous; histamine-induced bronchospasm; read-out: Doses (ID50), Histamine
Protocol: as §2

[11] = test system: plantar edema induced by immune complexes; assay: "reverse passive Arthus" (RPA) test, anti-inflammatory and anti-edema activity; assay type: in vivo, Sprague-Dawley rat; settings: Rattus norvegicus, intravenous
Protocol: The reaction between a soluble antigen and antibodies in the organism may lead to an acute inflammatory reaction accompanied by release of histamine, modification of vascular permeability and formation of a localized edema. […] To this end, the Arthus reaction is induced by subplantar administration of 0.1 ml of heterologous antivalbumin reaginic serum into the right hind paw and by simultaneous intravenous injection of 1 ml/kg ovalbumin (25 mg/ml). The compound to be tested is administered intravenously 30 seconds before induction of the Arthus reaction, in a least 3 different doses. A group of 6 rats is used per dose of compound to be tested. The volume of the paw is measured by plethysmometry before the Arthus reaction and 3 to 5 hours after induction of the Arthus reaction, both in the control animals and in the treated animals. The effect of a compound on the reduction in the edema for each dose and at each measurement time (3 hours and 5 hours) is expressed in % of the edema observed in the control animals. The doses of the compounds (ID30 in μmole/kg) which inhibit by 30%, on average over all the animals, the volume of the edema observed in the control animals are given in Table VII below.

[12] = test system: serotonergic activity; assay: "wet dog shake" (WDS) behavior, serotonergic activity; assay type: in vivo, male Sprague-Dawley rats; settings: 0.94 mg/kg i.p., counted over 30 minutes
Protocol: A decrease in serotonergic activity has been correlated with the occurrence of affective disorders, such as depression and anxiety. […] The test is carried out in the morning on male Sprague-Dawley rats (±180 g), divided the previous day into groups of 8 animals in residence cages. The cage used for the tests is a transparent enclosure of 12×24×30 cm in height, the floor of which is covered with a layer of sand. The compounds to be tested, dissolved either in physiological salt solution or in a citrate buffer of pH 5, are administered intraperitoneally in a different dose for each group treated. The control groups receive an intraperitoneal injection of the same vehicle (either physiological salt solution or citrate buffer). […] The mean values of the results are calculated and analyzed statistically by the Mann-Whitney method. The mean values of the number of shakes obtained for the compounds according to the invention administered intraperitoneally at the doses indicated (in mg/kg) are given in Table V below.

[13] = 3 hours after induction of the Arthus reaction, read-out: Dose (ID30), 3 hours
[14] = 5 hours after induction of the Arthus reaction, read-out: Dose (ID30), 5 hours

| SMILES | minimal effective concentration [3] | ED50 [4] | ED50 [5] | Minimum potentiating dose (MPD) [6] | activity at 1 µM [7] | Lethal dose [8] | Minimum potentiating dose (MPD) [9] | ED50 [10] | ED30 [11, 13] | ED30 [11, 14] | also measured |
| --- | --- | --- | --- | --- | --- | --- | --- | --- | --- | --- | --- |
| CNC(=O)Oc1ccc2c(c1)[C@]1(C)CCN(C)[C@@H]1N2C [physostigmine, reference compound] | – | – | – | – | – | – | – | – | – | – | Period of remaining on the mat, group 4 ([1]; 4 hours, 0.4 mg/kg i.p. + 0.5 mg scopolamine): 17.8 s; Period of remaining on the mat, group 4 ([1]; 24 hours, 0.4 mg/kg i.p. + 0.5 mg scopolamine): 56.2 s; Period of remaining on the mat, group 4 ([1]; 28 hours, 0.4 mg/kg i.p. + 0.5 mg scopolamine): 53.4 s; side effects / toxicity at the active dose ([1]; at the dose active against scopolamine amnesia): at a dose which has side effects and is very close to the toxic dose; action against the amnesic effect of scopolamine ([1]; similar to that of the compounds according to the invention): favorable action against the amnesic effect of scopolamine; Period of remaining on the mat, group 4 ([1]; time 0, 0.4 mg/kg i.p. + 0.5 mg scopolamine): 1.9 s; Learning, average number of trials, group 2 ([2]; 0.4 mg/kg i.p.): 2.3 trials |
| Cc1nc(NC2CC2)nc(N2CC3CCC(C2)O3)n1.Cl [Compound 9, 2-Cyclopropylamino-4-methyl-6-(8-oxa-3-azabicyclo[3,2,1]oct-3-yl)-1,3,5-triazine hydrochloride] | 3.2 µM | 2.1 µmol/kg | 1 µmol/kg | 3.2 µmol/L | 82% | 297.8 mg/kg | 10.0 µmol/L | 0.4 µmol/kg | 3.4 µmol/kg | 4.4 µmol/kg | Period of remaining on the mat, group 4 ([1]; 4 hours, 3.0 mg/kg i.p. + 0.5 mg scopolamine): 17.3 s; Period of remaining on the mat, group 4 ([1]; 24 hours, 3.0 mg/kg i.p. + 0.5 mg scopolamine): 38.1 s; Period of remaining on the mat, group 4 ([1]; 28 hours, 3.0 mg/kg i.p. + 0.5 mg scopolamine): 65.2 s; Period of remaining on the mat, group 4 ([1]; time 0, 3.0 mg/kg i.p. + 0.5 mg scopolamine): 3.6 s; Learning, average number of trials, group 2 ([2]; 3.0 mg/kg i.p.): 2.9 trials |
| [O-][S+]1CCN(c2nc(NC3CC3)nc(C3CC3)n2)CC1 [Compound 19, 2-Cyclopropyl-4-cyclopropylamino-6-thiomorpholino-1,3,5-triazine S-oxide] | 1 µM | 0.1 µmol/kg | 0.04 µmol/kg | 0.1 µmol/L | – | 175.6 mg/kg | 0.32 µmol/L | 0.02 µmol/kg | 0.02 µmol/kg | 0.02 µmol/kg | Average number of shakes [12]: 16.0 ± 4.7 shakes |
| CCCc1nc(NC2CC2)nc(N2CC(O)C2)n1 [Compound 15] | 10 µM | 0.3 µmol/kg | 0.2 µmol/kg | 3.2 µmol/L | 70% | > 498 mg/kg | 3.2 µmol/L | 0.08 µmol/kg | 39 µmol/kg | 4 µmol/kg | Period of remaining on the mat, group 4 ([1]; 4 hours, 2.5 mg/kg i.p. + 0.5 mg scopolamine): 19.5 s; Period of remaining on the mat, group 4 ([1]; 24 hours, 2.5 mg/kg i.p. + 0.5 mg scopolamine): 94.3 s; Period of remaining on the mat, group 4 ([1]; 28 hours, 2.5 mg/kg i.p. + 0.5 mg scopolamine): 112.7 s; Period of remaining on the mat, group 4 ([1]; time 0, 2.5 mg/kg i.p. + 0.5 mg scopolamine): 9.8 s; Learning, average number of trials, group 2 ([2]; 2.5 mg/kg i.p.): 1.9 trials |
| CCc1nc(NC2CC2)nc(N2CC3CCC(C2)O3)n1 [Compound 10] | 3.2 µM | 0.5 µmol/kg | 0.3 µmol/kg | 0.32 µmol/L | 56% | 311.8 mg/kg | 1.0 µmol/L | 0.1 µmol/kg | – | – | Period of remaining on the mat, group 4 ([1]; 4 hours, […] i.p. + 0.5 mg scopolamine): 20.3 s; Period of remaining on the mat, group 4 ([1]; 24 hours, […] i.p. + 0.5 mg scopolamine): 78.9 s; Period of remaining on the mat, group 4 ([1]; 28 hours, […] i.p. + 0.5 mg scopolamine): 142.0 s; Period of remaining on the mat, group 4 ([1]; time 0, […] i.p. + 0.5 mg scopolamine): 5.7 s |
